Measurements taken from US7598207B2, “Herbicidal composition” (Sumitomo Chemical Company, Limited, priority 2006, dated 2009).

How the values were obtained:
Type in all cases: in vivo
potato = assay: Test Example 6: soil-surface granule pot test, phytotoxicity against vegetable; conditions: flumioxazin 25 g/ha; granules on soil surface; 14 days after application
From the text: (§1) Plastic pots each having a diameter of 21 cm and a height of 20 cm were filled with upland soil, and then planted with potato and seeded with barnyardgrass, crabgrass and ivyleaf morningglory. Next day, on the surface of the soil of the above-mentioned plastic pots, Flumioxazin granules (granules containing 0.25% of flumioxazin, commercial name: Broad Star, produced by Valent U.S.A.), granules containing 0.9% of Compound [I] (prepared according to Formulation example 9), and a mixture of the Flumioxazin granules with the granules containing Compound [I] were applied with hand in a designated amount given by Table 6.
(§2) The herbicidal activity and phytotoxicity against the vegetable were examined 14 days after the application.

barnyardgrass [1] = assay: Test Example 6: soil-surface granule pot test, herbicidal activity; conditions: flumioxazin 25 g/ha; granules on soil surface; 14 days after application
From the text: as §1, §2

ivyleaf morningglory = assay: as above; conditions: flumioxazin 25 g/ha; granules on soil surface; 14 days after application
From the text: as §1, §2

crabgrass = assay: as above; conditions: flumioxazin 25 g/ha; granules on soil surface; 14 days after application
From the text: as §1, §2

yellow nutsedge = assay: Test Example 3: soil-surface spray pot test, herbicidal activity; design: key: 0: there is no or little difference in the degree of growth between treated plants and untreated plants at the time of observation; 7: show excellent herbicidal activity; 8: show excellent herbicidal activity; 9: show excellent herbicidal activity; 10: the test plants die completely or their growth is completely inhibited; conditions: 21 days after application
From the text: Plastic pots each having a width of 32 cm, a depth of 22 cm and a height of 8 cm were filled with upland soil, and then planted with a tuber of yellow nutsedge. Next day, Flumioxazin WDG (water dispersible granules containing 51% of flumioxazin, commercial name: Valor SX, produced by Valent U.S.A.), emulsifiable concentrate containing Compound [I] (prepared by dissolving Compound [I] with acetone containing Tween 20 (surfactant, sorbitan monolaurate polyglycol ether)) and a mixture thereof was diluted with a designated amount of water, and applied uniformly on the surface of the soil with a small sprayer.
The treated plants were grown in the greenhouse. The herbicidal activity and phytotoxicity against the crop were examined 21 days after the application.

barnyardgrass [2] = assay: Test Example 1: soil-surface granule pot test, herbicidal activity; conditions: flumioxazin 40 g/ha; granules on soil surface; 48 days after application
From the text: (§3) Plastic pots each having a diameter of 18 cm and a height of 14 cm were filled with upland soil, and then seeded with wheat and barnyardgrass. On the surface of the soil of the above-mentioned plastic pots, Flumioxazin granules (granules containing 0.25% of flumioxazin, commercial name: Broad Star, produced by Valent U.S.A.), granules containing Compound [I] (prepared by using one part of Compound [I], 0.5 part of Neocol YSK, 2 parts of Toxanon GR31A, 30 parts of Kunigel VI and 66.5 parts of calcium carbonate according to Formulation example 9), and a mixture of the Flumioxazin granules with the granules containing Compound [I] were applied with hand in a designated amount given by Table 1.
(§4) The treated plants were grown in the greenhouse. The herbicidal activity and phytotoxicity against the crop were examined 48 days after the application.

wheat = assay: Test Example 1: soil-surface granule pot test, phytotoxicity against crop; conditions: flumioxazin 40 g/ha; granules on soil surface; 48 days after application
From the text: as §3, §4

SMILES: C#CCN1C(=O)COc2cc(F)c(N3C(=O)C4=C(CCCC4)C3=O)cc21 [flumioxazin, N-(7-fluoro-3,4-dihydro-3-oxo-4-prop-2-ynyl-2H-1,4-benzoxadin-6-yl)cyclohex-1-ene-1,2-dicarboxamide]
- Phytotoxicity against vegetable Potato (potato): No damage
- Herbicidal activity Barnyardgrass (barnyardgrass [1]): 1
- Herbicidal activity Ivyleaf morningglory (ivyleaf morningglory): 1
- Herbicidal activity Crabgrass (crabgrass): 5
- Herbicidal activity Yellow nutsedge (yellow nutsedge; flumioxazin 25 g/ha): 0
- Herbicidal activity Yellow nutsedge (yellow nutsedge; flumioxazin 50 g/ha): 1
- Herbicidal activity Barnyardgrass (barnyardgrass [2]): 4
- Phytotoxicity against crop Wheat (wheat): No damage
